# According to patent EP4722207A1, “OXOISOINDOLINYL-SUBSTITUTED TETRAHYDROPYRIMIDINEDIONE DERIVATIVE AND USE THEREOF” (Gluetacs Therapeutics (Shanghai) Co., Ltd., priority 2023, dated 2024):
# How the values were obtained:
# Format in all cases: cell-based
# Conditions in all cases: compounds at 50 nM and 500 nM, 24 hours
# [1] = molecular target: T1, GSPT1 (Homo sapiens, UniProt P15170+Q96SW2); assay: Western-blot assay, substrate protein degradation in hPBMCs: GSPT1
# T1 construct: effects of the compounds of the present disclosure on the expression of target proteins in cells; endogenous in cells; host or cells: human PBMCs (hPBMCs)
# [2] = molecular target: T2, IKZF3 (Homo sapiens, UniProt Q96SW2+Q9UKT9); assay: Western-blot assay, substrate protein degradation in hPBMCs: IKZF3
# T2 construct: effects of the compounds of the present disclosure on the expression of target proteins in cells; endogenous in cells; host or cells: human PBMCs (hPBMCs)
# [3] = molecular target: T3, IKZF2 (Homo sapiens, UniProt Q96SW2+Q9UKS7); assay: Western-blot assay, substrate protein degradation in hPBMCs: IKZF2
# T3 construct: effects of the compounds of the present disclosure on the expression of target proteins in cells; endogenous in cells; host or cells: human PBMCs (hPBMCs)
# [4] = molecular target: T4, WEE1 (Homo sapiens, UniProt P30291+Q96SW2); assay: Western-blot assay, substrate protein degradation in hPBMCs: WEE1
# T4 construct: effects of the compounds of the present disclosure on the expression of target proteins in cells; endogenous in cells; host or cells: human PBMCs (hPBMCs)
# [5] = molecular target: T5, CK1α (Homo sapiens, UniProt P48729+Q96SW2); assay: Western-blot assay, substrate protein degradation in hPBMCs: CK1α
# T5 construct: effects of the compounds of the present disclosure on the expression of target proteins in cells; endogenous in cells; host or cells: human PBMCs (hPBMCs)
# [6] = molecular target: T6, IKZF1 (Homo sapiens, UniProt Q13422+Q96SW2); assay: Western-blot assay, substrate protein degradation in hPBMCs: IKZF1
# T6 construct: effects of the compounds of the present disclosure on the expression of target proteins in cells; endogenous in cells; host or cells: human PBMCs (hPBMCs)
# T1 sequence (P15170 whole entry): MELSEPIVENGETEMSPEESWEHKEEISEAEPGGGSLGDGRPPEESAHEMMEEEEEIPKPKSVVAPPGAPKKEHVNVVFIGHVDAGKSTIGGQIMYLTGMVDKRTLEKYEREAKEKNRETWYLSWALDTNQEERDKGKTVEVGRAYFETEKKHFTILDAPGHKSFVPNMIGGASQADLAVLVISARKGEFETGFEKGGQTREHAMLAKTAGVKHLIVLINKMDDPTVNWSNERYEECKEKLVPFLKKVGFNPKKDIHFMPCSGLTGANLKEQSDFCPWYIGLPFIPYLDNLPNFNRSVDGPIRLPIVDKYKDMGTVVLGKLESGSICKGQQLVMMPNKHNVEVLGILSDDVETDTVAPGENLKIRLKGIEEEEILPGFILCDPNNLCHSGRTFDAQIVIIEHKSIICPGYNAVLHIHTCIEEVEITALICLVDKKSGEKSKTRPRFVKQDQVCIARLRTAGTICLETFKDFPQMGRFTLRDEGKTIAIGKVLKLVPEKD
# T1 sequence (Q96SW2 whole entry): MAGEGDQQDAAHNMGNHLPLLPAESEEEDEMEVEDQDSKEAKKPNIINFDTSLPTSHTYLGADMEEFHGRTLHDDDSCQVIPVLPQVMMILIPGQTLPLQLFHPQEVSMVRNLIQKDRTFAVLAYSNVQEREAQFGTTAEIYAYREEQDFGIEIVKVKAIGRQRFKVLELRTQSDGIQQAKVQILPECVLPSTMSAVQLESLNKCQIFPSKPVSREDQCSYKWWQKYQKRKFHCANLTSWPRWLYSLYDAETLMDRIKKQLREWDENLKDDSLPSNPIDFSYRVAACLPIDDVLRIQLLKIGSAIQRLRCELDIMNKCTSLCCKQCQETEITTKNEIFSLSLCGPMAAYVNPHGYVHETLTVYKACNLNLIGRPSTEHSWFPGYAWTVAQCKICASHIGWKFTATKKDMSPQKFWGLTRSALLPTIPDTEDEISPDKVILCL
# T1 sequence (Q16531 whole entry partner): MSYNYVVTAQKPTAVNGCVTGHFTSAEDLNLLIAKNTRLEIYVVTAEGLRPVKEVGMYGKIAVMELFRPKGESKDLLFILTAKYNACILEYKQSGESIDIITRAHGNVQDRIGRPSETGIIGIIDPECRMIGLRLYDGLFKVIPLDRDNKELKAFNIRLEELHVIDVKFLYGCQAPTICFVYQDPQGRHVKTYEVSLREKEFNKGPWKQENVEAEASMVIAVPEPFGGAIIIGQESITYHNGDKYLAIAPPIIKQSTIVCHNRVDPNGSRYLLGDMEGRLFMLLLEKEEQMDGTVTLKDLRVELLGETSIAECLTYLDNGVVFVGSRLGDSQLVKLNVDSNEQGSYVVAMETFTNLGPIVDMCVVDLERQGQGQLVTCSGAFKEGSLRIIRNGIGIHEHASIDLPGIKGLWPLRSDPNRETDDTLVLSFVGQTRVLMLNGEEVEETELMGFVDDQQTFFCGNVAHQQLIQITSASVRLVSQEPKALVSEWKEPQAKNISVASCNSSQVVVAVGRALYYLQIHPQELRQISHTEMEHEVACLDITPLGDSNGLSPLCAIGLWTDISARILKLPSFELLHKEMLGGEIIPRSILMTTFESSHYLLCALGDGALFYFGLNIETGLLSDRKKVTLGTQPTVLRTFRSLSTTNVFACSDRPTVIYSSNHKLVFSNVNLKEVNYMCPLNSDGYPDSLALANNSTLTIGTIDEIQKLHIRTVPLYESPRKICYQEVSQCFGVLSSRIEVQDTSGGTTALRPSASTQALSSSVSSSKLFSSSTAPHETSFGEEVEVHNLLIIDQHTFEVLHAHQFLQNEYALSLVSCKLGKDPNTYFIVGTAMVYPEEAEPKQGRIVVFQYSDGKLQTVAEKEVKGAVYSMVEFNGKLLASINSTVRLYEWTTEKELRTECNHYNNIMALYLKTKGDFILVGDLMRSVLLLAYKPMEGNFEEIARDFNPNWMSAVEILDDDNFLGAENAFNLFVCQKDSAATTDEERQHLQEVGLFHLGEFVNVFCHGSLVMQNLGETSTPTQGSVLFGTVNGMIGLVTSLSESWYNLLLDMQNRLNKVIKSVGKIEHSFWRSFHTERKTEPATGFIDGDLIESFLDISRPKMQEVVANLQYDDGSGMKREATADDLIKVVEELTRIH
# T3 sequence (Q9UKS7 whole entry): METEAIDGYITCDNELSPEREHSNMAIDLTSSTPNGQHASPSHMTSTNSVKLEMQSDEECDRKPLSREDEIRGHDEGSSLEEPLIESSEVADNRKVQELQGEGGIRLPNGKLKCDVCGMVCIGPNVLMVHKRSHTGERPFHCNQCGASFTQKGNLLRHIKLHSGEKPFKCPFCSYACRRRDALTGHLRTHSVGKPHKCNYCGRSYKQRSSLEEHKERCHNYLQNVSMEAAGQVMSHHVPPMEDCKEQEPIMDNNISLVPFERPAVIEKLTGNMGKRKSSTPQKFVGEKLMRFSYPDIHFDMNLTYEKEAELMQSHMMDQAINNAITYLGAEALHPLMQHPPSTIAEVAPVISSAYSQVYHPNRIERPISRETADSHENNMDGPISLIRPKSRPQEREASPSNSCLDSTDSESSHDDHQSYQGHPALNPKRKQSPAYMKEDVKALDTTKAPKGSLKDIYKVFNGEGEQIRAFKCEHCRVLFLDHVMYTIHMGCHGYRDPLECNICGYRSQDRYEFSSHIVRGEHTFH
# T3 sequence (Q96SW2 whole entry): as the sequence (Q96SW2 whole entry) above
# T3 sequence (Q16531 whole entry partner): as the sequence (Q16531 whole entry partner) above
# T5 sequence (P48729 whole entry): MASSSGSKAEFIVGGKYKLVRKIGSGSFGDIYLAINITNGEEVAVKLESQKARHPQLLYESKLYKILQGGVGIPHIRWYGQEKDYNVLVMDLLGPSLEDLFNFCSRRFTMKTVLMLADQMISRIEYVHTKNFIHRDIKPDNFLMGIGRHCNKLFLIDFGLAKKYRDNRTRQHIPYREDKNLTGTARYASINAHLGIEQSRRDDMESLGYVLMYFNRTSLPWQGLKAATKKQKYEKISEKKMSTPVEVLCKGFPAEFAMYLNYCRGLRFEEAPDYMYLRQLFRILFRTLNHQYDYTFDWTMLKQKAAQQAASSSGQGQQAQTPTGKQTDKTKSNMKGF
# T5 sequence (Q96SW2 whole entry): as the sequence (Q96SW2 whole entry) above
# T5 sequence (Q16531 whole entry partner): as the sequence (Q16531 whole entry partner) above
# T2 sequence (Q9UKT9 whole entry): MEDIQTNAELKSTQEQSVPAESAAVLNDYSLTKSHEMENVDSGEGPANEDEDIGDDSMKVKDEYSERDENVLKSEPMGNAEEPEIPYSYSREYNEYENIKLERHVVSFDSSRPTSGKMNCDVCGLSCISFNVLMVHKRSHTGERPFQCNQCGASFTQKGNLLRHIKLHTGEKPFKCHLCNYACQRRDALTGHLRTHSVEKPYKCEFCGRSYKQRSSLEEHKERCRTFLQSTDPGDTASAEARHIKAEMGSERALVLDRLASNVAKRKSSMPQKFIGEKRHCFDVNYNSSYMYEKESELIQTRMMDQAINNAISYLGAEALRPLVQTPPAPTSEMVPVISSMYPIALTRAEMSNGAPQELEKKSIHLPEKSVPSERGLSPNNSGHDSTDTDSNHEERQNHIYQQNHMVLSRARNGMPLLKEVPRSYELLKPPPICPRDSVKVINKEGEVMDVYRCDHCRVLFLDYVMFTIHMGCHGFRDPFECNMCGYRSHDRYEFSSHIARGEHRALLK
# T2 sequence (Q96SW2 whole entry): as the sequence (Q96SW2 whole entry) above
# T2 sequence (Q16531 whole entry partner): as the sequence (Q16531 whole entry partner) above
# T4 sequence (P30291 whole entry): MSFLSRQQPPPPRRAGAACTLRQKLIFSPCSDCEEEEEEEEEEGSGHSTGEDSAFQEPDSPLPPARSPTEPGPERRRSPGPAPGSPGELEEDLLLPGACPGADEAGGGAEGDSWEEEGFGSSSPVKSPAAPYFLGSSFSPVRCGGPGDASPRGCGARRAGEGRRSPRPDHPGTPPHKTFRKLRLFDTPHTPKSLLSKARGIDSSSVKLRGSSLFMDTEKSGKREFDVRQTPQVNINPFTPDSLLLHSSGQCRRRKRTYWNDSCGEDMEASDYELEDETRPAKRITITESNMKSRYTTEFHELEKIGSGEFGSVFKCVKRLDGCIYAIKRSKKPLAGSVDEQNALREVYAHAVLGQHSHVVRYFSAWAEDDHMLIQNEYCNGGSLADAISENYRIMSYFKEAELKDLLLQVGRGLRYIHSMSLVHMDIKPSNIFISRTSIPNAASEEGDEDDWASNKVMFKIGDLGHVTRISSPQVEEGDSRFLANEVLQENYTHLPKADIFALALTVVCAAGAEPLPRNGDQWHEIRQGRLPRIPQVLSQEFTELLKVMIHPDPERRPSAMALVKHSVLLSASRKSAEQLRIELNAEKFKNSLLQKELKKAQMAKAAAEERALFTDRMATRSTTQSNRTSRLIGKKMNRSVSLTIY
# T4 sequence (Q96SW2 whole entry): as the sequence (Q96SW2 whole entry) above
# T4 sequence (Q16531 whole entry partner): as the sequence (Q16531 whole entry partner) above
SMILES,GSPT1 substrate protein remaining % [1],IKZF3 substrate protein remaining % [2],IKZF2 substrate protein remaining % [3],WEE1 substrate protein remaining % [4],CK1α substrate protein remaining % [5],IKZF1 substrate protein remaining % [6]
"O=C1CCN(N2C(=O)c3ccc(CN4CCN(c5ccnc(Cl)c5F)CC4)cc3C2=O)C(=O)N1 [GT-07166, 5-((4-(2-chloro-3-fluoropyridin-4-yl)piperazin-1-yl)methyl)-2-(2,4-dioxotetrahydropyrimidin-1(2H)-yl)isoindoline-1,3-dione]","A (""A"" is defined as 0% ≤ substrate protein remaining % ≤ 80%)","B (""B"" is defined as 80%< substrate protein remaining %≤ 100%)","A (""A"" is defined as 0% ≤ substrate protein remaining % ≤ 80%)","B (""B"" is defined as 80%< substrate protein remaining %≤ 100%)","B (""B"" is defined as 80%< substrate protein remaining %≤ 100%)","B (""B"" is defined as 80%< substrate protein remaining %≤ 100%)"
"O=C1CCN(N2C(=O)c3ccc(CN4CCN(c5ccnc(Br)c5F)CC4)cc3C2=O)C(=O)N1 [GT-07167, 5-((4-(2-bromo-3-fluoropyridin-4-yl)piperazin-1-yl)methyl)-2-(2,4-dioxotetrahydropyrimidin-1(2H)-yl)isoindoline-1,3-dione]","A (""A"" is defined as 0% ≤ substrate protein remaining % ≤ 80%)","B (""B"" is defined as 80%< substrate protein remaining %≤ 100%)","A (""A"" is defined as 0% ≤ substrate protein remaining % ≤ 80%)","B (""B"" is defined as 80%< substrate protein remaining %≤ 100%)","B (""B"" is defined as 80%< substrate protein remaining %≤ 100%)","B (""B"" is defined as 80%< substrate protein remaining %≤ 100%)"
"O=C1CCN(N2C(=O)c3ccc(CN4CCN(c5ccnc(Cl)c5Br)CC4)cc3C2=O)C(=O)N1 [GT-07168, 5-((4-(3-bromo-2-chloropyridin-4-yl)piperazin-1-yl)methyl)-2-(2,4-dioxotetrahydropyrimidin-1(2H)-yl)isoindoline-1,3-dione]","A (""A"" is defined as 0% ≤ substrate protein remaining % ≤ 80%)","B (""B"" is defined as 80%< substrate protein remaining %≤ 100%)","A (""A"" is defined as 0% ≤ substrate protein remaining % ≤ 80%)","B (""B"" is defined as 80%< substrate protein remaining %≤ 100%)","B (""B"" is defined as 80%< substrate protein remaining %≤ 100%)","B (""B"" is defined as 80%< substrate protein remaining %≤ 100%)"
"O=C1CCN(N2Cc3cc(CN4CCN(c5ccnc(Cl)c5Cl)CC4)ccc3C2=O)C(=O)N1 [GT-07169, 1-(5-((4-(2,3-dichloropyridin-4-yl)piperazin-1-yl)methyl)-1-oxoisoindolin-2-yl)dihydropyrimidine-2,4(1H,3H)-dione]","B (""B"" is defined as 80%< substrate protein remaining %≤ 100%)","B (""B"" is defined as 80%< substrate protein remaining %≤ 100%)","B (""B"" is defined as 80%< substrate protein remaining %≤ 100%)","A (""A"" is defined as 0% ≤ substrate protein remaining % ≤ 80%)","B (""B"" is defined as 80%< substrate protein remaining %≤ 100%)","B (""B"" is defined as 80%< substrate protein remaining %≤ 100%)"
"O=C1CCN(N2Cc3cc(CN4CCN(c5c(Cl)cncc5Br)CC4)ccc3C2=O)C(=O)N1 [GT-07170, 1-(5-((4-(3-bromo-5-chloropyridin-4-yl)piperazin-1-yl)methyl)-1-oxoisoindolin-2-yl)dihydropyrimidine-2,4(1H,3H)-dione]","B (""B"" is defined as 80%< substrate protein remaining %≤ 100%)","B (""B"" is defined as 80%< substrate protein remaining %≤ 100%)","B (""B"" is defined as 80%< substrate protein remaining %≤ 100%)","A (""A"" is defined as 0% ≤ substrate protein remaining % ≤ 80%)","B (""B"" is defined as 80%< substrate protein remaining %≤ 100%)","A (""A"" is defined as 0% ≤ substrate protein remaining % ≤ 80%)"
